# Reference: ChEMBL document CHEMBL2150926 (J Med Chem, 2011)
# Columns and labels:
# [1] = Immunosuppressive activity in human lymphocytes assessed as alloantigen-induced T cell proliferation by mixed lymphocyte reaction assay; format: functional, cell-based
# [2] = target: Protein kinase C delta type (Homo sapiens, UniProt Q05655); experiment: Inhibition of PKCdelta by scintillation proximity assay
# [3] = Immunosuppressive activity in mouse lymphocytes assessed as alloantigen-induced T cell proliferation by mixed lymphocyte reaction assay; format: functional, cell-based
# [4] = target: Protein kinase C eta type (Homo sapiens, UniProt P24723); experiment: Inhibition of PKCeta by scintillation proximity assay
# Protein kinase C eta type, sequence (P24723 whole entry): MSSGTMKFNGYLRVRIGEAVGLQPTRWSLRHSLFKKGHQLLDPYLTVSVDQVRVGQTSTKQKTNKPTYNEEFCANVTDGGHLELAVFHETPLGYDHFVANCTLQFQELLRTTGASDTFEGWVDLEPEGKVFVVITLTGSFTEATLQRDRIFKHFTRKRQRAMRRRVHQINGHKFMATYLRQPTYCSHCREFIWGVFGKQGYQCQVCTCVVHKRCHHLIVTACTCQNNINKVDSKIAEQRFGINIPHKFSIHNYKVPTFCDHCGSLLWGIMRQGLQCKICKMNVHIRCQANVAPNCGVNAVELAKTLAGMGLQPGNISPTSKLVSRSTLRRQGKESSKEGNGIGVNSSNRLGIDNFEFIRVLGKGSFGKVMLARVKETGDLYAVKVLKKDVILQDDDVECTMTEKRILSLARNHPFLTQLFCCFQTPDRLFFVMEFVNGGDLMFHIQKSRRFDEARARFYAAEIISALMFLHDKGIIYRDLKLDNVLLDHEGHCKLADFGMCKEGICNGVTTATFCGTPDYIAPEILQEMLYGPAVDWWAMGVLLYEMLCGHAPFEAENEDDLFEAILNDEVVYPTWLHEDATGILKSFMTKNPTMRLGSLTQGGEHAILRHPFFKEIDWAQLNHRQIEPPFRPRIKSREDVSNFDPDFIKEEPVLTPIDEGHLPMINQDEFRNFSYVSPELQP
# [5] = target: Protein kinase C theta type (Homo sapiens, UniProt Q04759); experiment: Inhibition of PKCtheta by scintillation proximity assay
# Protein kinase C theta type, sequence (Q04759 whole entry): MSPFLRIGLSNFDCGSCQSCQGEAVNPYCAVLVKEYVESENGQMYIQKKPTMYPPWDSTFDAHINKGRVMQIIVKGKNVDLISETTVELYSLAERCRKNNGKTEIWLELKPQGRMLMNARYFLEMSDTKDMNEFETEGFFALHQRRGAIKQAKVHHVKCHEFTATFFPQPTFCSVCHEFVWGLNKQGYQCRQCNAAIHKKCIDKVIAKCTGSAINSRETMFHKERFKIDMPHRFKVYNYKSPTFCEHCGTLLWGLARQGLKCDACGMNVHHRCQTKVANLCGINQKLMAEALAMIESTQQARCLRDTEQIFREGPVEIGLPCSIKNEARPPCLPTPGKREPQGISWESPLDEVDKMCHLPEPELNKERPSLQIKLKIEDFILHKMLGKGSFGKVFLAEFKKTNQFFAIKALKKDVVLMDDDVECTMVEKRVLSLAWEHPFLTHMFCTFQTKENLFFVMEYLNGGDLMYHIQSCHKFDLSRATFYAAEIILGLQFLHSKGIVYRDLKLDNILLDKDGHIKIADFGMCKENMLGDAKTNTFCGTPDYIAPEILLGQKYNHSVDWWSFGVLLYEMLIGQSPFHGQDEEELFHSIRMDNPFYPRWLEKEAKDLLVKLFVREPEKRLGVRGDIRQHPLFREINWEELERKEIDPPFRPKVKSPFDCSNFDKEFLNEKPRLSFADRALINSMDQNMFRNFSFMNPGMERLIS
# Blood = experiment: AUC (0 to 24 hrs) in Wistar rat blood at 30 mg/kg, po administered as single dose; format: ADME, organism-based; set-up: time < 24 hr, dose 30 mg/kg, route oral; conditions: in vivo
# [6] = target: T1, Protein kinase C epsilon type (Homo sapiens, UniProt Q02156); experiment: Inhibition of PKCepsilon by scintillation proximity assay
# T1 sequence (Q02156 whole entry): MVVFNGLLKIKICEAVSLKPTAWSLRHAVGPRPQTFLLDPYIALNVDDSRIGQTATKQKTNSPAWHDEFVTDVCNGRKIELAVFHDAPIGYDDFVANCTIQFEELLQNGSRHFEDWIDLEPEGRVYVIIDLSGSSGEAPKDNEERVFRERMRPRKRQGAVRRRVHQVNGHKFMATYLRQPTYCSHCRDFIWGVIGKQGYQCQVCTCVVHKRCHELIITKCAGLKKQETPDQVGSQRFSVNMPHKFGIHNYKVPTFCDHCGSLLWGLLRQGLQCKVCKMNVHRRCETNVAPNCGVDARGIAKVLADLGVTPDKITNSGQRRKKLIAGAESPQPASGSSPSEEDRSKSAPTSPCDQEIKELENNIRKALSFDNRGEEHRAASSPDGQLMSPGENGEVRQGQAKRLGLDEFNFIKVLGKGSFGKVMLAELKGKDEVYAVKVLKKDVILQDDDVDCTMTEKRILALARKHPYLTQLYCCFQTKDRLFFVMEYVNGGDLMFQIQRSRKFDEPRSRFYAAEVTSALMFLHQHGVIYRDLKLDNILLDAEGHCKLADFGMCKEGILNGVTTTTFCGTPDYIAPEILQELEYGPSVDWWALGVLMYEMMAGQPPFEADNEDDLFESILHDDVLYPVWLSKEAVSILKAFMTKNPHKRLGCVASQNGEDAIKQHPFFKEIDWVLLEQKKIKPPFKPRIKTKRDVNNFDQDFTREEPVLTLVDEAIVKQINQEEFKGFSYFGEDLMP
# [7] = target: Protein kinase C beta type (Homo sapiens, UniProt P05771); experiment: Inhibition of PKCbeta-1 by scintillation proximity assay
# Protein kinase C beta type, sequence (P05771 whole entry): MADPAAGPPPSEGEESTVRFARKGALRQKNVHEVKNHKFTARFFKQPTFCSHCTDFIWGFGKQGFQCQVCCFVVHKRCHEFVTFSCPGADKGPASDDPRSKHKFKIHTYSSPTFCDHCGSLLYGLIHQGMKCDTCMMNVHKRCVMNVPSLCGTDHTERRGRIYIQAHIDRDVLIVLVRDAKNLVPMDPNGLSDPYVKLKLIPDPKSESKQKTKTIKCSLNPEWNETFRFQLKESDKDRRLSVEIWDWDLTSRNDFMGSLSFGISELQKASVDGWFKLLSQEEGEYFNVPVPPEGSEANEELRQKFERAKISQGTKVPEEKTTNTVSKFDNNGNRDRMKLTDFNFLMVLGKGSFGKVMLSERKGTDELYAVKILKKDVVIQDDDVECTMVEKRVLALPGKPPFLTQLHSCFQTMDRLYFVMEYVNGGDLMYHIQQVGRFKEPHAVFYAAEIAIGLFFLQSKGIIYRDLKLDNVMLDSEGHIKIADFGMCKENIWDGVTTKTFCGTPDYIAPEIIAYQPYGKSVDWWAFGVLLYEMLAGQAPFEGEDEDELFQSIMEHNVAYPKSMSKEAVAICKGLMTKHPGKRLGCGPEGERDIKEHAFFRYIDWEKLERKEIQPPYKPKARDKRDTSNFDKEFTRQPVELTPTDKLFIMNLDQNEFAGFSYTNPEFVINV
# [8] = target: Protein kinase C alpha type (Homo sapiens, UniProt P17252); experiment: Inhibition of PKCalpha by scintillation proximity assay
# [9] = Total plasma clearance in OFA rat at 5 mg/kg, iv; format: ADME, organism-based; set-up: dose 5 mg/kg, route intravenous
# [10] = Tmax in OFA rat at 20 mg/kg, po; format: ADME, organism-based; set-up: dose 20 mg/kg, route oral; conditions: in vivo
# [11] = Volume of distribution at steady state in OFA rat at 5 mg/kg, iv; format: ADME, organism-based; set-up: dose 5 mg/kg, route intravenous; conditions: in vivo, read-out: Vdss
# [12] = Oral bioavailability in OFA rat at 20 mg/kg; format: ADME, organism-based; conditions: in vivo
# [13] = Elimination half life in OFA rat at 5 mg/kg, iv; format: ADME, organism-based; set-up: dose 5 mg/kg, route intravenous; conditions: in vivo, read-out: beta t1/2 (converted)
# [14] = Intrinsic clearance in OFA rat liver microsomes at 20 mg/kg, po; format: ADME, Microsome; set-up: dose 20 mg/kg, route oral; conditions: read-out: CLH
# Rattus norvegicus [15] = experiment: Dose normalized AUC (0 to infinity) in OFA rat 20 mg/kg, po; format: ADME, organism-based; set-up: dose 20 mg/kg, route oral; conditions: in vivo
# Rattus norvegicus [16] = experiment: Dose normalized AUC (0 to infinity) in OFA rat at 5 mg/kg, iv; format: ADME, organism-based; set-up: dose 5 mg/kg, route intravenous; conditions: in vivo
# [17] = Lipophilicity, log D of the compound at pH 6.8; format: physicochemical; conditions: buffer
# P-gp (human) = experiment: Efflux ratio of permeability from basolateral to apical to apical to basolateral in MDCK cells transfected with human p-gp gene; format: ADME, cell-based, Canis lupus familiaris; conditions: dog, MDCK-MDR1
# Rattus norvegicus [18] = experiment: AUC (0 to 24 hrs) in Wistar rat at 30 mg/kg, po administered as single dose; format: ADME, organism-based, Plasma; set-up: time < 24 hr, dose 30 mg/kg, route oral; conditions: in vivo
# [19] = Octanol-water partition coefficient, log P of the compound; format: physicochemical
# [20] = Intrinsic solubility of the compound at pH 6.8; format: physicochemical; conditions: buffer, read-out: Intrinsic_solubility
# Mus musculus [21] = experiment: Drug metabolism in po dosed Balb/c mouse assessed as 3-(1H-Indol-3-yl)-4-(2-piperazin-1-yl-quinazolin-4-yl)pyrrole-2,5-dione level relative to parent compound; format: ADME, organism-based; conditions: in vivo
# Mus musculus [22] = experiment: Dose normalized AUC (0 to infinity) in Balb/c mouse at 5 mg/kg, iv; format: ADME, organism-based; set-up: dose 5 mg/kg, route intravenous; conditions: in vivo
# [23] = Volume of distribution at steady state in cynomolgus monkey at 5 mg/kg, iv; format: ADME, organism-based, Macaca fascicularis; set-up: dose 5 mg/kg, route intravenous; conditions: in vivo, read-out: Vdss
# [24] = Oral bioavailability in Balb/c mouse at 30 mg/kg; format: ADME, organism-based; conditions: in vivo
# [25] = Solubility of the compound in fasted state simulated intestinal fluid at pH 6.5; format: physicochemical
# [26] = Solubility of the compound in fed state simulated intestinal fluid at pH 5.8; format: physicochemical
# Spleen = experiment: AUC (0 to 24 hrs) in Wistar rat spleen at 30 mg/kg, po administered as single dose; format: ADME, organism-based; set-up: time < 24 hr, dose 30 mg/kg, route oral; conditions: in vivo
# Thymus = experiment: AUC (0 to 24 hrs) in Wistar rat thymus at 30 mg/kg, po administered as single dose; format: ADME, organism-based; set-up: time < 24 hr, dose 30 mg/kg, route oral; conditions: in vivo
# [27] = Fraction unbound in OFA rat plasma at 20 mg/kg, po; format: ADME, organism-based; set-up: dose 20 mg/kg, route oral
# [28] = Elimination half life in cynomolgus monkey at 5 mg/kg, iv; format: ADME, organism-based, Macaca fascicularis; set-up: dose 5 mg/kg, route intravenous; conditions: in vivo, read-out: beta t1/2 (converted)
# [29] = Total plasma clearance in cynomolgus monkey at 5 mg/kg, iv; format: ADME, organism-based, Macaca fascicularis; set-up: dose 5 mg/kg, route intravenous
# [30] = Elimination half life in Balb/c mouse at 5 mg/kg, iv; format: ADME, organism-based; set-up: dose 5 mg/kg, route intravenous; conditions: in vivo, read-out: beta t1/2 (converted)
# [31] = Intrinsic clearance in Balb/c mouse liver microsomes at 30 mg/kg, po; format: ADME, Microsome; set-up: dose 30 mg/kg, route oral; conditions: read-out: CLH
# [32] = Intrinsic clearance in cynomolgus monkey liver microsomes at 20 mg/kg, po; format: ADME, Macaca fascicularis, Microsome; set-up: dose 20 mg/kg, route oral; conditions: read-out: CLH
# [33] = Tmax in cynomolgus monkey at 20 mg/kg, po; format: ADME, organism-based, Macaca fascicularis; set-up: dose 20 mg/kg, route oral; conditions: in vivo
# [34] = Volume of distribution at steady state in Balb/c mouse at 5 mg/kg, iv; format: ADME, organism-based; set-up: dose 5 mg/kg, route intravenous; conditions: in vivo, read-out: Vdss
# [35] = Fraction unbound in cynomolgus monkey plasma at 20 mg/kg, po; format: ADME, organism-based, Macaca fascicularis; set-up: dose 20 mg/kg, route oral
# [36] = AUC (0 to 24 hrs) in Wistar rat mesenteric lymph node at 30 mg/kg, po administered as single dose; format: ADME, organism-based; set-up: time < 24 hr, dose 30 mg/kg, route oral; conditions: in vivo
# [37] = Oral bioavailability in cynomolgus monkey at 20 mg/kg; format: ADME, organism-based, Macaca fascicularis; conditions: in vivo
# Cytochrome P450 3A4 = Cytochrome P450 3A4 (Homo sapiens, UniProt P08684); experiment: Inhibition of CYP3A4-catalyzed midazolam 1'-hydroxylation in human liver microsomes; format: ADME, Microsome
# Cytochrome P450 3A4, sequence (P08684 whole entry): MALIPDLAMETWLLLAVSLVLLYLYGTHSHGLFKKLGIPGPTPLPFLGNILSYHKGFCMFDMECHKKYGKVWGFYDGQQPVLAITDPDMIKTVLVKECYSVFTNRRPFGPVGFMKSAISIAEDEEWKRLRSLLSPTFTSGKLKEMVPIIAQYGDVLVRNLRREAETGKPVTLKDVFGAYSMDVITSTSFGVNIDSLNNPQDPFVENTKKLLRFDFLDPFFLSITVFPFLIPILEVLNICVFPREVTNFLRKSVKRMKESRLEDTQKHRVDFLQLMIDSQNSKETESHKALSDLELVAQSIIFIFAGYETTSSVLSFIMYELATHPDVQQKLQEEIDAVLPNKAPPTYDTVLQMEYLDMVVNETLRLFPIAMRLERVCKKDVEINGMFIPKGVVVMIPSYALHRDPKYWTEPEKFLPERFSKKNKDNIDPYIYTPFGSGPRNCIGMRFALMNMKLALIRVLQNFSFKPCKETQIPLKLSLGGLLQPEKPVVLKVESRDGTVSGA
# Cynomolgus monkey [38] = experiment: Dose normalized AUC (0 to infinity) in cynomolgus monkey at 5 mg/kg, iv; format: ADME, organism-based, Macaca fascicularis; set-up: dose 5 mg/kg, route intravenous; conditions: in vivo
# Mus musculus [39] = experiment: Dose normalized AUC (0 to infinity) in Balb/c mouse at 30 mg/kg, po; format: ADME, organism-based; set-up: dose 30 mg/kg, route oral; conditions: in vivo
# Cynomolgus monkey [40] = experiment: Dose normalized AUC (0 to infinity) in cynomolgus monkey at 20 mg/kg, po; format: ADME, organism-based, Macaca fascicularis; set-up: dose 20 mg/kg, route oral; conditions: in vivo
# [41] = Apparent permeability in human Caco2 cells; format: ADME, cell-based; conditions: Caco-2
# [42] = Solubility of the compound in simulated gastric fluid at pH 2.0; format: physicochemical
# [43] = Tmax in Balb/c mouse at 30 mg/kg, po; format: ADME, organism-based; set-up: dose 30 mg/kg, route oral; conditions: in vivo
# [44] = Total plasma clearance in Balb/c mouse at 5 mg/kg, iv; format: ADME, organism-based; set-up: dose 5 mg/kg, route intravenous
# Protein kinase C delta type, sequence (Q05655 whole entry): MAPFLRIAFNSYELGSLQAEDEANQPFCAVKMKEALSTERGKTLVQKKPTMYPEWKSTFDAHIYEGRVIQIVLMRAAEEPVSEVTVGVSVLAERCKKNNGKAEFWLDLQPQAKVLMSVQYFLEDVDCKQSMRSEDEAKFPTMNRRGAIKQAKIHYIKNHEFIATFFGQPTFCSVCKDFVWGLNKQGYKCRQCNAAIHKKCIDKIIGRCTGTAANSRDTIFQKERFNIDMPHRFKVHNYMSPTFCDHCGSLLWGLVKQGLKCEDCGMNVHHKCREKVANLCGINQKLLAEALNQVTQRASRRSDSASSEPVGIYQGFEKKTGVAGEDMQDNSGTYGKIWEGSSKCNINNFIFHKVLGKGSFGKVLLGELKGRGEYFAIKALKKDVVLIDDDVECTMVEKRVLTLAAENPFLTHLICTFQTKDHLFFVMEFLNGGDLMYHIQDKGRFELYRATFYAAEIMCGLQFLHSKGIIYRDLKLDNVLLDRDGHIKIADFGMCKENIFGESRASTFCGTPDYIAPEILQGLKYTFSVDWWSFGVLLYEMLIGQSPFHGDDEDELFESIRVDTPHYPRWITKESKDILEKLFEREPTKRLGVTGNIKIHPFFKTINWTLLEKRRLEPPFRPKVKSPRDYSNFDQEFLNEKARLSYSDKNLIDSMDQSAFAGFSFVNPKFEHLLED
smiles,measurement,setting,value
O=C1NC(=O)C(c2c[nH]c3ccccc23)=C1c1nc(N2CCNCC2)nc2ccccc12,IC50,[1],51 nM
same,IC50,[2],0.4 nM
same,IC50,[3],854 nM
same,IC50,[4],1 nM
same,IC50,[5],0.5 nM
same,AUC,Blood,85 ng·h/g
same,IC50,[6],0.9 nM
same,IC50,[7],0.6 nM
same,IC50,[8],0.5 nM
Cn1cc(C2=C(c3nc(N4CCNCC4)nc4ccccc34)C(=O)NC2=O)c2ccccc21,IC50,[1],99 nM
same,IC50,[2],1 nM
same,IC50,[3],378 nM
same,clearance,[9],25 mL/min/kg
same,Tmax,[10],0.5 h
same,Vd,[11],10 L/kg
same,bioavailability,[12],24%
same,IC50,[4],3.3 nM
same,half-life,[13],4.6 h
same,microsomal CLint,[14],112 µL/min/mg
same,IC50,[5],1.2 nM
same,AUC/dose,Rattus norvegicus [15],161 ng·h/mL
same,IC50,[6],3.8 nM
same,IC50,[7],1.4 nM
same,AUC/dose,Rattus norvegicus [16],671 ng·h/mL
same,logD,[17],0.6
same,efflux ratio,P-gp (human),64.4
same,AUC,Rattus norvegicus [18],1729 ng·h/g
same,IC50,[8],1.4 nM
same,logP,[19],2.3
same,solubility,[20],195 µg/mL
CN1CCN(c2nc(C3=C(c4c[nH]c5ccccc45)C(=O)NC3=O)c3ccccc3n2)CC1 [SOTRASTAURIN],fold change (FC),Mus musculus [21],2
same,AUC/dose,Mus musculus [22],371 ng·h/mL
same,Vd,[23],5.9 L/kg
same,IC50,[1],37 nM
same,IC50,[3],150 nM
same,bioavailability,[24],19%
same,solubility,[25],410 µg/mL
same,solubility,[26],530 µg/mL
same,AUC,Spleen,30887 ng·h/g
same,AUC,Thymus,12644 ng·h/g
same,fraction unbound,[27],0.011
same,microsomal CLint,[14],505 µL/min/mg
same,half-life,[28],4.8 h
same,AUC/dose,Rattus norvegicus [15],110 ng·h/mL
same,clearance,[29],23 mL/min/kg
same,half-life,[30],2.5 h
same,microsomal CLint,[31],248 µL/min/mg
same,AUC/dose,Rattus norvegicus [16],326 ng·h/mL
same,microsomal CLint,[32],433 µL/min/mg
same,logD,[17],2.4
same,Tmax,[33],8 h
same,Vd,[34],3.1 L/kg
same,AUC,Rattus norvegicus [18],1952 ng·h/g
same,fraction unbound,[35],0.024
same,AUC,[36],20478 ng·h/g
same,bioavailability,[37],18%
same,Ki,Cytochrome P450 3A4,2900 nM
same,AUC/dose,Cynomolgus monkey [38],720 ng·h/mL
same,AUC/dose,Mus musculus [39],72 ng·h/mL
same,AUC/dose,Cynomolgus monkey [40],128 ng·h/mL
same,logP,[19],2.9
same,Papp,[41],4.5 ×10⁻⁶ cm/s
same,solubility,[42],780 µg/mL
same,Tmax,[43],0.5 h
same,solubility,[20],19 µg/mL
same,clearance,[44],45 mL/min/kg
